Test results from ChEMBL document CHEMBL4507276 (2021).

Experiments:
[1] = molecular target: T1, Serine/threonine-protein kinase Nek2 (Homo sapiens) (UniProt P51955); conditions: Compound concentration 1000.0 nM
T1 sequence (whole entry): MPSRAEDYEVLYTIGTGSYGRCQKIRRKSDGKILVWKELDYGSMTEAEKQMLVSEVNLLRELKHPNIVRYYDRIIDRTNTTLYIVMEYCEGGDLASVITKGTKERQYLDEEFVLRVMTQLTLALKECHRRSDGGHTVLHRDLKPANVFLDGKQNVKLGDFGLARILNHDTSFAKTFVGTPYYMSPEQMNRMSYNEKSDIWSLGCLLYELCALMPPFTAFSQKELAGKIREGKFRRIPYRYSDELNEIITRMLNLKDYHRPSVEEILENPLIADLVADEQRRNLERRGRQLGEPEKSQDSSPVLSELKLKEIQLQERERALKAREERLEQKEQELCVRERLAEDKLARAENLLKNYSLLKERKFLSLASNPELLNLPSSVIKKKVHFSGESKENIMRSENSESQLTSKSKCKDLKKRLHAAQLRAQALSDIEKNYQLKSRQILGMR

[2] = molecular target: Serine/threonine-protein kinase PLK3 (Homo sapiens) (UniProt Q9H4B4); conditions: Compound concentration 1000.0 nM
[3] = molecular target: Beta-2 adrenergic receptor (Homo sapiens) (UniProt P07550); conditions: Compound concentration 10.0 uM
[4] = molecular target: Serine/threonine-protein kinase PRP4 homolog (Homo sapiens) (UniProt Q13523); conditions: Compound concentration 1000.0 nM
[5] = molecular target: Serine/threonine-protein kinase Nek3 (Homo sapiens) (UniProt P51956); conditions: Compound concentration 1000.0 nM
[6] = molecular target: Tyrosine-protein kinase receptor Tie-1 (Homo sapiens) (UniProt P35590); conditions: Compound concentration 1000.0 nM
[7] = molecular target: Receptor-type tyrosine-protein kinase FLT3 (Homo sapiens) (UniProt P36888); conditions: Compound concentration 1000.0 nM
[8] = molecular target: T2, Ephrin type-A receptor 8 (Homo sapiens) (UniProt P29322); conditions: Compound concentration 1000.0 nM
T2 sequence (whole entry): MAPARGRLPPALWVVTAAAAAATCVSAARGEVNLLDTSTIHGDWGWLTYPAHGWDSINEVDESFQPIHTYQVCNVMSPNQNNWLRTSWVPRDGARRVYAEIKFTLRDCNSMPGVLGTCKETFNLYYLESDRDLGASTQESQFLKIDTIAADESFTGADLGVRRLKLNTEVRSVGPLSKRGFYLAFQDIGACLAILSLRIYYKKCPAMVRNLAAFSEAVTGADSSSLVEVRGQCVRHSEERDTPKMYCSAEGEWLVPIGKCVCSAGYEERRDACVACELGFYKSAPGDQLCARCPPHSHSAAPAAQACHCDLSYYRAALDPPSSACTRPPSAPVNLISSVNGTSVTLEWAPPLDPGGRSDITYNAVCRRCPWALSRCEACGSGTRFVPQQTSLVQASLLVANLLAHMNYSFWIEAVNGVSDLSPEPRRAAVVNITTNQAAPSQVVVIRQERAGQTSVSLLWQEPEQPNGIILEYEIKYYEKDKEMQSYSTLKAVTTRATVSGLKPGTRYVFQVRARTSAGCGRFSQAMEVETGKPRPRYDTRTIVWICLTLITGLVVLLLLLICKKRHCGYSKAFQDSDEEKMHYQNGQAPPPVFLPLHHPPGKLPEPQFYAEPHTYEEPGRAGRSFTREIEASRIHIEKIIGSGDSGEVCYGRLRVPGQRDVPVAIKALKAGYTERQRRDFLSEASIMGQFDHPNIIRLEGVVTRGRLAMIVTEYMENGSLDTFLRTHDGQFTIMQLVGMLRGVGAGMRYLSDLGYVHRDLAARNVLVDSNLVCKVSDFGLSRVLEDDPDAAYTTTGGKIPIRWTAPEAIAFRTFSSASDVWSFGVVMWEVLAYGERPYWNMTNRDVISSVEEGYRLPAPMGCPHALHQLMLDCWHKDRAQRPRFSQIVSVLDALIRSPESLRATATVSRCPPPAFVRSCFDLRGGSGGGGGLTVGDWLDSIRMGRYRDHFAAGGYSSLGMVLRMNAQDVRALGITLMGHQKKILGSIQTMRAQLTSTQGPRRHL

[9] = molecular target: Serine/threonine-protein kinase 24 (Homo sapiens) (UniProt Q9Y6E0); conditions: Compound concentration 1000.0 nM
[10] = molecular target: T3, Muscarinic acetylcholine receptor M4 (Homo sapiens) (UniProt P08173); conditions: Compound concentration 10.0 uM
T3 sequence (whole entry): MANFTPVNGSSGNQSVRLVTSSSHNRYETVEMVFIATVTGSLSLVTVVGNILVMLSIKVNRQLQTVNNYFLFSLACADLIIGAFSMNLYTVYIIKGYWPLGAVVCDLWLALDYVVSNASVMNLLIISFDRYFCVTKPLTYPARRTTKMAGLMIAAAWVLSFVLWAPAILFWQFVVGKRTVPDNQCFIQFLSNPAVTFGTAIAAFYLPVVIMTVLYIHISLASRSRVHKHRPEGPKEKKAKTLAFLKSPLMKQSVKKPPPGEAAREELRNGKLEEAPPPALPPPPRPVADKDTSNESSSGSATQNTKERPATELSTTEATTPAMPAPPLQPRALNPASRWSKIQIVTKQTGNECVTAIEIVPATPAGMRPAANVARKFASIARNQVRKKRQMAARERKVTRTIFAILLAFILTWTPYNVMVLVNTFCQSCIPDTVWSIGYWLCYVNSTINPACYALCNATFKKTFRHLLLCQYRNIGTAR

Sequence of Serine/threonine-protein kinase Nek3 (Homo sapiens) (P51956 whole entry): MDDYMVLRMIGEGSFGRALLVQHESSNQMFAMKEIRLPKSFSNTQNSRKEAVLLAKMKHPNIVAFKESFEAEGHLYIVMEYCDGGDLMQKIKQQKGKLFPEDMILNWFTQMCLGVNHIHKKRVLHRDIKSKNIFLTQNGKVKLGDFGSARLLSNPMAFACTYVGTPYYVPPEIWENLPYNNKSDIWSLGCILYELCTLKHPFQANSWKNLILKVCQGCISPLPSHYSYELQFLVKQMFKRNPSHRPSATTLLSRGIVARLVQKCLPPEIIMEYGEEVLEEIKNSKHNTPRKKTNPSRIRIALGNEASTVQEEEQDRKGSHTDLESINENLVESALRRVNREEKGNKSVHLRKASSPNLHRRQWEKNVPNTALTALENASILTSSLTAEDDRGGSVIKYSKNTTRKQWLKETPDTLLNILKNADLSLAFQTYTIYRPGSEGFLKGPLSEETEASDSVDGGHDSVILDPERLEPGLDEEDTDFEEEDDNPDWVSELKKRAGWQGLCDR
Sequence of Beta-2 adrenergic receptor (Homo sapiens) (P07550 whole entry, looked up): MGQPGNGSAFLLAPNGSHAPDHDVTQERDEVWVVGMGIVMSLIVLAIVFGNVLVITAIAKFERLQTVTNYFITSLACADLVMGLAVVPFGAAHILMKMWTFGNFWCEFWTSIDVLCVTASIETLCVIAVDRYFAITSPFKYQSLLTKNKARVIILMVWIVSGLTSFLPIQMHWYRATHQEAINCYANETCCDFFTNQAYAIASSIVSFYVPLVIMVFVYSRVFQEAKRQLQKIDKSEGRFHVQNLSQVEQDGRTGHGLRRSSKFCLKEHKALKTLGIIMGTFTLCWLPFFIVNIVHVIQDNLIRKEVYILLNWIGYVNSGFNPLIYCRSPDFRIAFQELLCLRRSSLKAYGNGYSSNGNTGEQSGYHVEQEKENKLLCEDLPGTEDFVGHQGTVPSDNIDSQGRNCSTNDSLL
Sequence of Serine/threonine-protein kinase PLK3 (Homo sapiens) (Q9H4B4 whole entry, looked up): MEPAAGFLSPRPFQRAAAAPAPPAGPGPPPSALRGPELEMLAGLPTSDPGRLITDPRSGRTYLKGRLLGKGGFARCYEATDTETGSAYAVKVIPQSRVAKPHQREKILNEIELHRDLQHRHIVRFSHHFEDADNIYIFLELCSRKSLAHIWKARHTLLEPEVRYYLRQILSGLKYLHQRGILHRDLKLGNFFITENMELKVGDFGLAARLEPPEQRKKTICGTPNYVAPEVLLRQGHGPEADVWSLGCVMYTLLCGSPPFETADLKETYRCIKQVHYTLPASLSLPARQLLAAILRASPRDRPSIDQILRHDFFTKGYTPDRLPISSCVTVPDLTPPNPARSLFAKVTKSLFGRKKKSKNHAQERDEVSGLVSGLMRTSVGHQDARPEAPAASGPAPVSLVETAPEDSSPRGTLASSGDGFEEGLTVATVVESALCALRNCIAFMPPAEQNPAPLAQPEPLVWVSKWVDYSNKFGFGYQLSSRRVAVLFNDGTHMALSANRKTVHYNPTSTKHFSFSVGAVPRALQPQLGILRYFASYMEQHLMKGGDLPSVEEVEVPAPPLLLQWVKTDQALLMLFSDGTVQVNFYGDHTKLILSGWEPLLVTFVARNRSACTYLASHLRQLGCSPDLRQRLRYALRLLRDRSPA
Sequence of Receptor-type tyrosine-protein kinase FLT3 (Homo sapiens) (P36888 whole entry): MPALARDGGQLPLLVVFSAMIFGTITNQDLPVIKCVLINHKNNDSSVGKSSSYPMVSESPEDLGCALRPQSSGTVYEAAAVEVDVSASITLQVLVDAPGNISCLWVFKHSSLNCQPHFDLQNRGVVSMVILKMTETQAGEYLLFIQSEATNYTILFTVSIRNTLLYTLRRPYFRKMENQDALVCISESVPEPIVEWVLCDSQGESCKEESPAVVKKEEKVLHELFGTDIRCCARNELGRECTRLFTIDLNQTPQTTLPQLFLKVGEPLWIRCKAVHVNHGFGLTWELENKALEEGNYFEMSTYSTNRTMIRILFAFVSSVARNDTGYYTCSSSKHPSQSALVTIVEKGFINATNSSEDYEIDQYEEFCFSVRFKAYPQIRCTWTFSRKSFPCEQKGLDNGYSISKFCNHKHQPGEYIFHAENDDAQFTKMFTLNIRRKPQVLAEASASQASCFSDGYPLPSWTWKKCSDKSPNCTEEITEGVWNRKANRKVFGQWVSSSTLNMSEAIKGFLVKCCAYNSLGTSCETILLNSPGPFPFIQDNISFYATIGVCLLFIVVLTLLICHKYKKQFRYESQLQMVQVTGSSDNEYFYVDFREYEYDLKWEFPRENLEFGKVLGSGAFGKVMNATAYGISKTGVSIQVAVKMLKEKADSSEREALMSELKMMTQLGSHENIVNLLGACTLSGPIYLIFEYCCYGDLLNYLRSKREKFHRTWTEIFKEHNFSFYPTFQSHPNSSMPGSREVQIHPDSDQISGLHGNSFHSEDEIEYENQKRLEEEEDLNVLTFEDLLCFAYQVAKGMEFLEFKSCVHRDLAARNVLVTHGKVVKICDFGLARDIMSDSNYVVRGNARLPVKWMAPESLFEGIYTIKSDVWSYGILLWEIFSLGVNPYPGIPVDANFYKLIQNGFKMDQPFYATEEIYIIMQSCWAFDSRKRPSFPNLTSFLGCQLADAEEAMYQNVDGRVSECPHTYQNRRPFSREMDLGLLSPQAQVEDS
Sequence of Serine/threonine-protein kinase 24 (Homo sapiens) (Q9Y6E0 whole entry, looked up): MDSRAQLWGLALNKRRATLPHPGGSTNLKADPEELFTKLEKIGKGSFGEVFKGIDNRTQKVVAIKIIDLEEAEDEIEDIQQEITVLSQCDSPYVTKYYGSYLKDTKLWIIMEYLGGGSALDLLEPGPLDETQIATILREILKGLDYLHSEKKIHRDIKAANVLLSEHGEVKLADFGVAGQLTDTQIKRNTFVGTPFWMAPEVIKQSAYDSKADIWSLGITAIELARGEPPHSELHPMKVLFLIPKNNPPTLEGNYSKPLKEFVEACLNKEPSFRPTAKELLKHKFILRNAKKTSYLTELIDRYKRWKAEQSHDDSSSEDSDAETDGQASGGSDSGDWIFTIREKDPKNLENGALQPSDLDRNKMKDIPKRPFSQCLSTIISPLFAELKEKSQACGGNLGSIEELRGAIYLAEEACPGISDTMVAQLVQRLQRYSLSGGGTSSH
Sequence of Serine/threonine-protein kinase PRP4 homolog (Homo sapiens) (Q13523 whole entry): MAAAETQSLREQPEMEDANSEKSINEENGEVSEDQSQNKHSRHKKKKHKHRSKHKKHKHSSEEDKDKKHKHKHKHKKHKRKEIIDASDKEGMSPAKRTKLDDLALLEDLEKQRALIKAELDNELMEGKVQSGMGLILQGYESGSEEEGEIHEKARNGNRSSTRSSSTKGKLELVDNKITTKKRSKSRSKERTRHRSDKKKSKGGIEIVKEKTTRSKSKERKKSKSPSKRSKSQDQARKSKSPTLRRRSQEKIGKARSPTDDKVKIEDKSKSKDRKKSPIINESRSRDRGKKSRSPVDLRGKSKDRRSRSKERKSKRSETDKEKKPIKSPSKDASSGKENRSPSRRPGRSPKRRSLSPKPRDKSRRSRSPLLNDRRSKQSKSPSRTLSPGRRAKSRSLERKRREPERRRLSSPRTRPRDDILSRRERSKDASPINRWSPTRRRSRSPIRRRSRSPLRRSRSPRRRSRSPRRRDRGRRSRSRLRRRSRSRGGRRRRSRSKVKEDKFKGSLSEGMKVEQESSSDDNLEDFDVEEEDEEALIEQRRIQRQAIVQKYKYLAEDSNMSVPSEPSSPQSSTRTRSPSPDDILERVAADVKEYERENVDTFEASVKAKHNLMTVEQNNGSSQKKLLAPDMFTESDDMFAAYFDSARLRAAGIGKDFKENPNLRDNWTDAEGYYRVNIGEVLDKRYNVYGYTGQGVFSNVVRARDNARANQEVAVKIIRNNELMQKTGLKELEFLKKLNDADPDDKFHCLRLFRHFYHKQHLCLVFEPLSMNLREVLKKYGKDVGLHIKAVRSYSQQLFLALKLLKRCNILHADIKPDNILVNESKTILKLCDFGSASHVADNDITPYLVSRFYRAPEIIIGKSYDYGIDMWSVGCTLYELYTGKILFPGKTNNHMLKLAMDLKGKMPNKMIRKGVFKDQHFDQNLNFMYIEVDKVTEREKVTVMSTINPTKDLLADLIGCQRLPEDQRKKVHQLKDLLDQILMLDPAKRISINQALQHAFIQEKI

CN(C)C(=O)Cn1cc(-c2nc(C3(c4ccc(-c5cnc(N)nc5)cc4)CC3)no2)cn1 [BI 0153]
inactive: residual activity [1] 100% | residual activity [2] 89% | inhibition [3] 3.55% | residual activity [4] 87% | residual activity [5] 57% | residual activity [6] 98% | residual activity [7] 90% | residual activity [8] 87% | residual activity [9] 100% | inhibition [10] 5.81%

CN(C)C(=O)Cn1cc(-c2nc([C@@](C)(c3ccc(-c4cnc(N)nc4)cc3)C3CC3)no2)cn1 [BI 665915]
inactive: residual activity [1] 97% | residual activity [2] 89% | inhibition [3] 0.497% | residual activity [4] 86% | residual activity [5] 87% | residual activity [6] 90% | residual activity [7] 97% | residual activity [8] 100% | residual activity [9] 100% | inhibition [10] 10.3%
